Data: publication PMC8049364, “Quantification of Macrophage-Driven Inflammation During Myocardial Infarction with ^18F-LW223, a Novel TSPO Radiotracer with Binding Independent of the rs6971 Human Polymorphism” (Journal of Nuclear Medicine, 2021)

Experiments:
TSPO [1] = test: In vitro competition binding assay with ^3H-PK11195 in human heart homogenates (HAB, MAB, LAB); settings: for Effect of rs6971 genetic polymorphism on Ki: human heart; for LAB/HAB ratio: human heart homogenates, rs6971 genotyped
Experimental: (§1) All studies using human tissue were conducted in accordance with the National Health Service Research Ethics Committee South East Scotland (Edinburgh Brain and Tissue Bank, 16/ES/0084). Supplemental Table 1 contains the Brain Bank Network reference number for all tissues used from the Edinburgh Brain and Tissue Bank. […] Samples were homogenized in ×10 w/v buffer (50 mM Tris-Base, pH 7.4, 4°C) before centrifugation (32,000g, 10 min, 4°C). Tissue pellets were then resuspended in ×10 w/v buffer and centrifuged again before resuspending in 2 mL of buffer. Samples were assessed for protein concentration using the Bio-Rad protein assay, aliquoted, and stored at −80°C until use. The competition binding assay protocol was adjusted from a previously reported protocol ([16]), as detailed within the supplemental materials.
(§2) In Vitro Human Competition Binding Assays
(§3) Briefly, 250 µg protein/mL in 200 µl of buffer was added to 100 µl of 1 nM 3H- […]
(§4) Aldrich, USA), PBR28 (ABX, Germany), AB5186 or LW223 at 14 different concentrations (0.001-3000 nM) for 90 min at 4 °C. Binding was terminated with the addition of ice cold buffer before being immediately filtered over a Whatman GF/B filters (Whatman, UK) pre-treated with 0.3% polyethylenimine (Sigma-Aldrich, USA) using a Brandel harvester (Brandel, USA). Filter paper was then removed, placed into 2.5 mL of Optiphase HiSafe 3 (Perkin Elmer, USA) and counted 48 hours later on a Hidex 300 SL (Hidex, Finland).
(§5) All binding assays were performed
(§6) GraphPad Prism version 6 (GraphPad Software, USA) was used to fit all binding affinity curves. A comparison of a one-site and two-site models was made using the least squares algorithm and model selection was compared using an F test. The null hypothesis (one-site fitting as more suitable) was rejected if p<0.05. Normalized mean […]
(§7) saturation binding results, Sup.Fig.2) was used to determine the best fitting model and to calculate LAB:HAB ratios. Affinity values (Ki) were calculated by fitting individual tissue

TSPO [2] = target: T1, TSPO (Homo sapiens, UniProt P30536); test: In vitro competition binding assay with ^3H-PK11195 in human brain homogenates (HAB, MAB, LAB); settings: for LAB/HAB ratio: human brain homogenates, rs6971 genotyped
Experimental: as §1, §2, §3, §4, §5, §6, §7

TSPO [3] = settings: cited from earlier work
TSPO [4] = target: T1, TSPO; test: In vitro competition binding assay with ^3H-PK11195 in human heart homogenates (HAB, MAB, LAB); settings: human heart
Experimental: as §1, §2, §3, §4, §5, §6, §7

[5] = humans; cited from earlier work
[6] = cited from earlier work
TSPO [7] = settings: humans; cited from earlier work

T1 sequence (P30536 2-169): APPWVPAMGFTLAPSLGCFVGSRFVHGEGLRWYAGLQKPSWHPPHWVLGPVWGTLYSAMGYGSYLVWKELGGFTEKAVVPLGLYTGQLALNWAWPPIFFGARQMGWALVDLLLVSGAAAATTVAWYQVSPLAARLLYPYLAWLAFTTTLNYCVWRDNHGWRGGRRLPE

SMILES	Effect of rs6971 genetic polymorphism on Ki (TSPO [1])	LAB/HAB ratio (TSPO [1])	LAB/HAB ratio (TSPO [2])	VT in the brain (TSPO [3])	also measured
COc1ccccc1CN(C(C)=O)c1cnccc1Oc1ccccc1 [PBR28, reference compound]	affected	48	48		
CCN(CC)C(=O)[C@H]1CCCc2c1c1c(OC)cccc1n2CC[18F] [^18F-GE180, Flutriciclamide]				0.10–0.28 mL/cm^3	
CC[C@@H](C)N(C)C(=O)c1nc2ccccc2c(-c2ccccc2)c1CF [LW223]	unaffected	1	1		Ki (TSPO [4]): 1.7 nM; Effect of rs6971 genetic polymorphism on Ki (TSPO [2]; human brain): unaffected; Ki (TSPO [2]; human brain): 0.6 nM
CCN(CC)C(=O)Cc1c(-c2ccc(OCCC[18F])cc2)nc2ccc(Cl)cn12 [^18F-PBR111]				2.22–4.03 mL/cm^3	
CC[C@@H](C)N([11CH3])C(=O)c1nc(-c2ccccc2Cl)c2ccccc2n1 [^11C-ER176]				1.6–3.5 mL/cm^3	parent free fraction in plasma [5]: 3.3%
CCC(C)N([11CH3])C(=O)c1cc2ccccc2c(-c2ccccc2Cl)n1 (centres unmarked) [^11C-PK11195]				0.6–0.74 mL/cm^3	parent free fraction in plasma [5]: 1%; parent in plasma ([6]; same lower species (rat)): ~40%; SUVpeak, heart (TSPO [7]): 5; SUVpeak, lung (TSPO [7]): 3
CCN(CC)C(=O)c1nc2ccccc2c(-c2ccccc2)c1CF [AB5186]	affected	7	9		Effect of rs6971 genetic polymorphism on Ki (TSPO [2]; human brain): affected
CN(C(=O)Cn1c(=O)oc2ccc(-c3ccc(OCC[18F])cc3)cc21)c1ccccc1 [^18F-FEBMP]					original parent compound found in blood ([6]; rats, 30 min after injection): less than 10%
